The source of these data is US20140011870A1, “Methods of Treating Obesity Using an Effective Dose of a METAP-2 Inhibitor” (Zafgen, Inc., priority 2010, published 2014).

One series has as its system adiponectin. The series is described as follows: Adiponectin levels in the serum of patients undergoing the trial. It counts as in vivo, human. Conditions: with treatment. On the procedure: Obese patients were treated in three cohorts with intravenous administration of a formulation of the compound 6-O-(4-dimethylaminoethoxy)cinnamoyl fumagillol oxalate. The compound was intravenously administered to each patient of a cohort (except for a placebo cohort) twice weekly for at least 26 days. Each of patients in the three non-placebo cohorts received either 0.1 mg/m^2 (cohort 1); 0.3 mg/m^2 (cohort 2); or 0.9 mg/m^2 (cohort 3) doses of the compound at the time of administration. The trial was conducted under the appropriate government and medical supervision. Levels of adiponectin in the serum of patients undergoing the trial were also measured.

Series [1] is described as follows: Visual Analog Scale reports of hunger in obese patients. It is filed as in vivo, human. Conditions: successive biweekly dose administration, 0.9 mg/m^2 cohort. As to the method: FIG. 2 depicts VAS reports of hunger decline by approximately 50% with body weight change (percent) with biweekly dosing of f 0.1 mg/m^2, 0.3 mg/m^2, and 0.9 mg/m^2 (approximately 1.8 to 2.1 mg) of 6-O-(4-dimethylaminoethoxy)cinnamoyl fumagillol in human patients. Values are means (n=6 per dose level) of changes in fasted Visual Analog Scale scores for each visit day vs. Day 1 for population; p values derived from 2-way ANOVA with Bonferroni post-test comparisons (*, p<0.05; **, p<0.01 vs. placebo). Obese patients were treated in three cohorts with intravenous administration of a formulation of the compound 6-O-(4-dimethylaminoethoxy)cinnamoyl fumagillol oxalate. The compound was intravenously administered to each patient of a cohort (except for a placebo cohort) twice weekly for at least 26 days. Each of patients in the three non-placebo cohorts received either 0.1 mg/m^2 (cohort 1); 0.3 mg/m^2 (cohort 2); or 0.9 mg/m^2 (cohort 3) doses of the compound at the time of administration. The trial was conducted under the appropriate government and medical supervision. […] FIG. 1 depicts the body weight change (loss) as a percent before each administration of the biweekly dose for the 0.9 mg/m^2 cohort. FIG. 2 depicts the Visual Analog Scale reports of hunger decline about 50% following successive biweekly dose administration for the 0.9 mg/m^2 cohort.

Series [2] can be described thus: Body weight in obese patients, twice weekly intravenous administration (clinical trial). Conditions: for Dose at which weight loss efficacy is obtained: administered twice weekly. It counts as in vivo, human. On the procedure: Obese patients were treated in three cohorts with intravenous administration of a formulation of the compound 6-O-(4-dimethylaminoethoxy)cinnamoyl fumagillol oxalate. The compound was intravenously administered to each patient of a cohort (except for a placebo cohort) twice weekly for at least 26 days. Each of patients in the three non-placebo cohorts received either 0.1 mg/m^2 (cohort 1); 0.3 mg/m^2 (cohort 2); or 0.9 mg/m^2 (cohort 3) doses of the compound at the time of administration. The trial was conducted under the appropriate government and medical supervision. […] Table 1 summarizes body weight determination of the 9 patients in the 0.9 mg/m^2 cohort on the day of the first dose and prior to a second dose administered four days later. […] FIG. 1 depicts the body weight change (loss) as a percent before each administration of the biweekly dose for the 0.9 mg/m^2 cohort. FIG. 2 depicts the Visual Analog Scale reports of hunger decline about 50% following successive biweekly dose administration for the 0.9 mg/m^2 cohort. […] All of the subjects of the trial described in Example 1 received doses ranging from 1.8 to 2.2 mg with each administration (given twice weekly). However, weight change of was not strictly associated with dose delivered. Instead, response was strongly associated with dose administered per unit excess body weight, as compared to weight change associated with dose delivered per unit body weight.

For series [3] the following is noted: human, in vivo. On the procedure: Obese patients were treated in three cohorts with intravenous administration of a formulation of the compound 6-O-(4-dimethylaminoethoxy)cinnamoyl fumagillol oxalate. The compound was intravenously administered to each patient of a cohort (except for a placebo cohort) twice weekly for at least 26 days. Each of patients in the three non-placebo cohorts received either 0.1 mg/m^2 (cohort 1); 0.3 mg/m^2 (cohort 2); or 0.9 mg/m^2 (cohort 3) doses of the compound at the time of administration. The trial was conducted under the appropriate government and medical supervision.
Table 1 summarizes body weight determination of the 9 patients in the 0.9 mg/m^2 cohort on the day of the first dose and prior to a second dose administered four days later.
There was a significant correlation between weight loss of patients and maintained exposure of 0.02 ng/mL of the drug above the level of quantitation of the assay 24 hours after dosing, as shown in FIG. 4 (circled data point is exposure of one poor responder below the level of quantitation of assay). The PK profile at day 26 is representative of steady state (see FIG. 5).

The mark [4] stands for this setting: listed as 6-O-(4-dimethylaminoethoxy)cinnamoyl fumagillol.

Bounds are passed on as bounds.

Consider `CO[C@@H]1[C@H](OC(=O)/C=C/c2ccc(OCCN(C)C)cc2)CC[C@]2(CO2)[C@H]1[C@@]1(C)O[C@@H]1CC=C(C)C.O=C(O)C(=O)O` [6-O-(4-dimethylaminoethoxy)cinnamoyl fumagillol oxalate], for which the “Increase in adiponectin concentrations” value in the series on adiponectin was “over 60%”. The “Visual Analog Scale reports of hunger decline” value in series [1] is given as “about 50%”; in series [1] (setting [4]) it was “approximately 50%”. For the same molecule, the “Weight loss efficacy at low doses” value in series [2] (0.1 and 0.3 mg/m^2, twice weekly) is given as “Lack of efficacy”. In addition, in series [2] (7 of the 9 subjects treated at 0.9 mg/m^2, twice weekly), the “body weight loss over 26 days of exposure” value is on record as 3-4%. Besides, the “Dose at which weight loss efficacy is obtained” value in series [2] is no less than 0.02 mg/kg; in series [2] (setting [4]), roughly 0.02 mg/kg. In addition, the “Dose per kg of excess body weight needed to see effects” value in series [2] (obese patients, twice weekly) is recorded as > 40 μg of drug per kg of excess body weight. In addition, the “Drug exposure at 24 hours post dose correlated with weight loss” value in series [3] is on record as “above 0.02 ng/mL”. Also, the “terminal half life of the drug” value in series [3] (iv) was 5.4 h.
